# Results taken from the supplement of paper PMC10307832.
# Compound: C1=CC2=NC=CN=C2C=C1/C=C/3\C(=O)NC(=O)S3 + Cc1nc(Nc2ncc(C(=O)Nc3c(C)cccc3Cl)s2)cc(N2CCN(CCO)CC2)n1 [Dasatinib] (partner 0.075 µM)
# Experiment: relative viability (nuclei count vs DMSO), 5 days (fraction); higher = more cells survive
# Conditions: first compound 0.02 µM
# Method in brief: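 After 5 days of treatment, lung cancer cells in 1536-well plates were fixed and stained in a single step (final 0.05% Triton X-100, 1% formaldehyde, 1 ug/ml Hoechst) and their nuclei counted on 4× images. Treatment had been applied by pin tool the day after seeding as one drug alone or as a fixed anchor-drug dose with five library-drug doses (not always all listed) in √10 steps. Relative viability is the nuclei count of treated wells divided by that of vehicle wells, and values are medians of duplicate plates.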
row,Cell Line,relative viability
1,NCI-H727,0.488
2,NCI-H1650,0.274
3,NCI-H1993,0.516
4,SW 1573,0.392
5,NCI-H838,0.278
6,LCLC-103H,0.427
7,NCI-H520,0.181
8,NCI-H2126,0.499
9,EMC-BAC-2,0.309
10,NCI-H2085,0.226
11,HCC-366,0.613
12,NCI-H1666,0.716
13,NCI-H596,0.67
14,LK-2,0.291
15,NCI-H2087,0.761
16,NCI-H2342,0.305

row,Cell Line,relative viability
1,SK-MES-1,0.456
2,H3255,0.365
3,COR-L23,0.446
4,COR-L 105,0.343
5,LOU-NH91,0.568
6,ChaGo-K-1,0.611
7,NCI-H2170,0.495
8,NCI-H2405,0.233
9,HOP-62,0.651
10,SW 900,0.499
11,LU99A,0.576
12,BEN,0.362
13,HCC-78,0.381
14,NCI-H1792,0.763
15,NCI-H1563,0.477

# Same assay, conditions: first compound 0.06325 µM
row,Cell Line,relative viability
1,NCI-H522,1.06
2,NCI-H1623,0.523
3,NCI-H727,0.362
4,NCI-H1650,0.355
5,NCI-H1993,0.592
6,SW 1573,0.76
7,NCI-H838,0.179
8,LCLC-103H,0.571
9,NCI-H520,0.229
10,NCI-H2126,0.625
11,EMC-BAC-2,0.297
12,NCI-H2085,0.212
13,NCI-H1666,0.835
14,NCI-H596,0.588
15,LK-2,0.349
16,NCI-H2087,0.713

row,Cell Line,relative viability
1,NCI-H2342,0.315
2,SK-MES-1,0.267
3,H3255,0.329
4,COR-L23,0.481
5,COR-L 105,0.344
6,LOU-NH91,0.597
7,ChaGo-K-1,0.574
8,NCI-H2170,0.611
9,NCI-H2405,0.161
10,HOP-62,0.736
11,SW 900,0.788
12,LU99A,0.922
13,BEN,0.35
14,HCC-78,0.705
15,NCI-H1792,0.653
16,NCI-H1563,0.435

# Same assay, conditions: first compound 0.2 µM
row,Cell Line,relative viability
1,NCI-H522,0.942
2,NCI-H1623,0.526
3,NCI-H727,0.355
4,NCI-H1650,0.364
5,NCI-H1993,0.667
6,SW 1573,0.69
7,NCI-H838,0.311
8,LCLC-103H,0.474
9,NCI-H520,0.217
10,NCI-H2126,0.614
11,EMC-BAC-2,0.33
12,NCI-H2085,0.248
13,HCC-366,0.645
14,NCI-H1666,0.772
15,NCI-H596,0.62
16,LK-2,0.306
17,NCI-H2087,0.911

row,Cell Line,relative viability
1,NCI-H2342,0.334
2,SK-MES-1,0.375
3,H3255,0.348
4,COR-L23,0.395
5,COR-L 105,0.376
6,LOU-NH91,0.551
7,ChaGo-K-1,0.596
8,NCI-H2170,0.508
9,NCI-H2405,0.231
10,HOP-62,0.605
11,SW 900,0.625
12,LU99A,0.462
13,BEN,0.297
14,HCC-78,0.517
15,NCI-H1792,0.807
16,NCI-H1563,0.523

# Same assay, conditions: first compound 0.6325 µM
row,Cell Line,relative viability
1,NCI-H522,1.09
2,NCI-H1623,0.524
3,NCI-H727,0.378
4,NCI-H1650,0.289
5,NCI-H1993,0.581
6,SW 1573,0.523
7,NCI-H838,0.257
8,LCLC-103H,0.461
9,NCI-H520,0.161
10,NCI-H2126,0.629
11,EMC-BAC-2,0.322
12,NCI-H2085,0.257
13,HCC-366,0.552
14,NCI-H1666,0.819
15,NCI-H596,0.528
16,LK-2,0.297
17,NCI-H2087,0.857

row,Cell Line,relative viability
1,NCI-H2342,0.309
2,SK-MES-1,0.339
3,H3255,0.379
4,COR-L23,0.477
5,COR-L 105,0.402
6,LOU-NH91,0.525
7,ChaGo-K-1,0.544
8,NCI-H2170,0.48
9,NCI-H2405,0.184
10,HOP-62,0.621
11,SW 900,0.883
12,LU99A,0.508
13,BEN,0.352
14,HCC-78,0.392
15,NCI-H1792,0.818
16,NCI-H1563,0.486

# Same assay, conditions: first compound 2 µM
row,Cell Line,relative viability
1,NCI-H522,0.714
2,NCI-H1623,0.422
3,NCI-H727,0.24
4,NCI-H1650,0.248
5,NCI-H1993,0.521
6,SW 1573,0.291
7,NCI-H838,0.187
8,LCLC-103H,0.214
9,NCI-H520,0.151
10,NCI-H2126,0.266
11,EMC-BAC-2,0.224
12,NCI-H2085,0.213
13,HCC-366,0.0998
14,NCI-H1666,0.575
15,NCI-H596,0.427
16,LK-2,0.189
17,NCI-H2087,0.507

row,Cell Line,relative viability
1,NCI-H2342,0.283
2,SK-MES-1,0.211
3,H3255,0.38
4,COR-L23,0.344
5,COR-L 105,0.279
6,LOU-NH91,0.354
7,ChaGo-K-1,0.499
8,NCI-H2170,0.597
9,NCI-H2405,0.155
10,HOP-62,0.503
11,SW 900,0.486
12,LU99A,0.287
13,BEN,0.252
14,HCC-78,0.184
15,NCI-H1792,0.311
16,NCI-H1563,0.316
